Laboratory results reported in patent US20050053647A1, “Pharmaceutical product comprising the active substance diamorphine, and its use in a process for treating opiate addiction” (priority 1999, published 2005).
In brackets after ≈: the same amount, converted by molar mass.

Key:
[1] = In vitro skin permeation from TTS, nude guinea pig skin model; assay type: in vitro ADME
Description: Diamorphine is determined as total of heroin+morphine metabolite.

[2] = test system: heroin addicts; details: cited from earlier work
[3] = Saturation solubility of diamorphine base in solvents
[4] = Rate of hydrolytic breakdown of diamorphine base in solvents (diamorphine content over time); details: for Diamorphine content: area percentages

CC(=O)Oc1ccc2c3c1O[C@H]1[C@@H](OC(C)=O)C=C[C@H]4[C@@H](C2)N(C)CC[C@@]341 [diamorphine base, diamorphine]
Skin passage in relation to morphine and buprenorphine ([1]; TTS matrix of same base formulation and loading, citrate buffer pH=3.0 + 0,1% NaN3, T=37° C., diamorphine determined as total of heroin + morphine metabolite): better skin passage
Skin flux in flow equilibrium (permeation rate) compared with morphine and buprenorphine ([1]; nude guinea pig skin, TTS of identical formulation, in some cases): markedly higher
State of health of the heroin addicts ([2]; state-controlled administration, intravenous or pulmonary (cigarettes), 969 heroin addicts): Marked improvements
solubility ([3]; Benzyl nicotinate, organic solvent or mixture): 23.2 mg/mL (≈ 62.8 mM)
solubility ([3]; Benzyl nicotinate/Vitamin E 1:1, organic solvent or mixture): 17.7 mg/mL (≈ 47.9 mM)
solubility ([3]; Dimethylisosorbide, organic solvent or mixture): 12.8 mg/mL (≈ 34.6 mM)
solubility ([3]; Dimethylisosorbide/Vitamin E 1:1, organic solvent or mixture): 9.82 mg/mL (≈ 26.6 mM)
solubility ([3]; Lemon oil, oil or lipid): 10.3 mg/mL (≈ 27.9 mM)
solubility ([3]; Lemon oil/Vitamin E 1:1, oil or lipid): 8 mg/mL (≈ 21.7 mM)
solubility ([3]; N-Methylpyrrolidone, organic solvent or mixture): 32.2 mg/mL (≈ 87.2 mM)
solubility ([3]; N-Methylpyrrolidone/Vitamin E 1:1, organic solvent or mixture): 24.8 mg/mL (≈ 67.1 mM)
solubility ([3]; Oleic acid, oil or lipid): 22.6 mg/mL (≈ 61.2 mM)
solubility ([3]; Oleic acid/Vitamin E 1:1, oil or lipid): 17.2 mg/mL (≈ 46.6 mM)
solubility ([3]; R-(+)-Limonene, organic solvent or mixture): 25.1 mg/mL (≈ 67.9 mM)
solubility ([3]; R-(+)-Limonene/Vitamin E 1:1, organic solvent or mixture): 19 mg/mL (≈ 51.4 mM)
solubility ([3]; Tween 80, organic solvent or mixture): 5.81 mg/mL (≈ 15.7 mM)
solubility ([3]; Tween 80/Vitamin E 1:1, organic solvent or mixture): 4.45 mg/mL (≈ 12 mM)
solubility ([3]; Vitamin E, oil or lipid): 1.62 mg/mL (≈ 4.39 mM)
Effect of combinations of vitamin E with a further aprotic solvent on the rate of hydrolytic breakdown ([4]; combinations of vitamin E with solvent (Table 1)): surprisingly positive stabilizing effect
Diamorphine content ([4]; solvent Benzyl nicotinate/Vitamin E 1:1, t = 0.5 h): 99.2%
Diamorphine content ([4]; solvent Benzyl nicotinate/Vitamin E 1:1, t = 24 h): 99.0%
Diamorphine content ([4]; solvent Benzyl nicotinate, t = 0.5 h): 97.8%
Diamorphine content ([4]; solvent Benzyl nicotinate, t = 24 h): 86.5%
Diamorphine content ([4]; solvent Dimethylisosorbide/Vitamin E 1:1, t = 0.5 h): 100%
Diamorphine content ([4]; solvent Dimethylisosorbide/Vitamin E 1:1, t = 24 h): 99.8%
Diamorphine content ([4]; solvent Dimethylisosorbide, t = 0.5 h): 98.5%
Diamorphine content ([4]; solvent Dimethylisosorbide, t = 24 h): 93.5%
Diamorphine content ([4]; solvent Lemon oil/Vitamin E 1:1, t = 0.5 h): 99.1%
Diamorphine content ([4]; solvent Lemon oil/Vitamin E 1:1, t = 24 h): 98.9%
Diamorphine content ([4]; solvent Lemon oil, t = 0.5 h): 93.5%
Diamorphine content ([4]; solvent Lemon oil, t = 24 h): 80.5%
Diamorphine content ([4]; solvent N-Methylpyrrolidone/Vitamin E 1:1, t = 0.5 h): 99.8%
Diamorphine content ([4]; solvent N-Methylpyrrolidone/Vitamin E 1:1, t = 24 h): 99.7%
Diamorphine content ([4]; solvent N-Methylpyrrolidone, t = 0.5 h): 97.8%
Diamorphine content ([4]; solvent N-Methylpyrrolidone, t = 24 h): 87.8%
Diamorphine content ([4]; solvent Oleic acid/Vitamin E 1:1, t = 0.5 h): 99.6%
Diamorphine content ([4]; solvent Oleic acid/Vitamin E 1:1, t = 24 h): 99.6%
Diamorphine content ([4]; solvent Oleic acid, t = 0.5 h): 97.4%
Diamorphine content ([4]; solvent Oleic acid, t = 24 h): 90.3%
Diamorphine content ([4]; solvent R-(+)-Limonene/Vitamin E 1:1, t = 0.5 h): 99.7%
Diamorphine content ([4]; solvent R-(+)-Limonene/Vitamin E 1:1, t = 24 h): 99.6%
Diamorphine content ([4]; solvent R-(+)-Limonene, t = 0.5 h): 96.7%
Diamorphine content ([4]; solvent R-(+)-Limonene, t = 24 h): 87.7%
Diamorphine content ([4]; solvent Tween 80/Vitamin E 1:1, t = 0.5 h): 100%
Diamorphine content ([4]; solvent Tween 80/Vitamin E 1:1, t = 24 h): 100%
Diamorphine content ([4]; solvent Tween 80, t = 0.5 h): 99%
Diamorphine content ([4]; solvent Tween 80, t = 24 h): 93.4%
Diamorphine content ([4]; solvent Vitamin E, t = 0.5 h): 100%
Diamorphine content ([4]; solvent Vitamin E, t = 24 h): 100%

CCC(=O)C(CC(C)N(C)C)(c1ccccc1)c1ccccc1 (centres unmarked) [methadone]
Therapy of heroin dependents compared with heroin ([2]; even on intravenous administration, Swiss experiment): inferior to heroin
